Details: Liquid, Vibrating tube method

CCCCCCCCCCCCCCCC [hexadecane]
mass density [kg/m3]
Details | 353.15 K | 373.15 K | 393.15 K
340 kPa | – | 723.1 | 710
690 kPa | – | 723.3 | 710.3
1030 kPa | – | 723.6 | 710.6
1380 kPa | – | 723.8 | 710.9
1720 kPa | – | 724 | 711.1
2070 kPa | – | 724.3 | 711.4
2410 kPa | – | 724.6 | 711.7
2760 kPa | – | 724.9 | 712
3100 kPa | – | 725.1 | 712.2
3450 kPa | – | 725.4 | 712.3
3800 kPa | – | 725.6 | 712.5
4140 kPa | – | 725.9 | 712.8
4480 kPa | – | 726.1 | 713
4830 kPa | – | 726.4 | 713.3
5170 kPa | – | 726.7 | 713.5
5510 kPa | – | 726.9 | 713.8
5860 kPa | 740.4 | 727.2 | 714
6200 kPa | 740.5 | 727.5 | 714.3
6550 kPa | 740.7 | 727.8 | 714.6
6890 kPa | 741 | 728.1 | 714.9
7240 kPa | 741.2 | 728.4 | 715.1
7580 kPa | 741.5 | 728.5 | 715.3
7930 kPa | 741.7 | 728.9 | 715.5
8270 kPa | 742 | 729.4 | 715.8
8620 kPa | 742.2 | 729.9 | 716
8960 kPa | 742.5 | 730.2 | 716.3
9310 kPa | 742.7 | 730.6 | 716.6
9650 kPa | 742.9 | 730.8 | 716.8
10000 kPa | 743.1 | 731 | 717.1
10340 kPa | 743.5 | 731.4 | 717.4
10690 kPa | 743.9 | 731.6 | 717.6
11030 kPa | 744.1 | 731.9 | 717.9
11380 kPa | 744.3 | 732.1 | 718.1

From the NIST ThermoML archive (doi:10.1021/je301283e)
